Laboratory results taken from patent US20170240522A1, “BENZOTHIOPHENE, BENZYLOXYBENZYLIDENE AND INDOLINE DERIVATIVES USEFUL FOR THE TREATMENT OF TUBERCULOSIS” (priority 2014, published 2017).

What was measured:
[1] = system: THP-1 macrophages; assay: Survival of Mtb-infected activated THP-1 macrophages; assay type: cell-based, human; conditions: activated THP-1, higher MOI, 10 μM
[2] = system: Ag85 complex proteins; assay type: cell-based, Mycobacterium tuberculosis; conditions: 5 μM
[3] = system: EsxA; assay type: cell-based, Mycobacterium tuberculosis
[4] = system: Mtb culture filtrate proteins; assay: Secretome analysis of culture filtrate (LC/MS-MS); assay type: cell-based, Mycobacterium tuberculosis; conditions: 5 μM
Method: For the secretome analysis 10 μg of protein was reconstituted in 200 μl of 4 M Urea, 10% acetonitrile and buffered with Tris-HCl pH 8.5 to a final concentration of 30 mM. Proteins were reduced in 10 mM dithioerythritol (DTE) at 37° C. for 60 min. and then alkylated in 40 mM iodoacetamide at 37° C. for 45 min. Reactions were quenched by addition of DTE to a final concentration of 10 mM. First, protein digestion was performed using Lys-C (1:50 enzyme:protein) for 2 hours at 37° C. The lysates were then diluted 5-fold and a second digestion was performed overnight at 37° C. using mass spectrometry grade trypsin gold (1:50 enzyme:protein) and 10 mM CaCl2. Reactions were stopped by addition of 8 μl of pure formic acid and peptides were concentrated by vacuum centrifugation to a final volume of 70 μl.
• After digestions, samples were dimethyl-labeled as described previously (Boersema et al., 2009). […]
• Each SAX fraction was resuspended in 2% acetonitrile, 0.1% FA and loaded on a capillary pre-column (Magic AQ C18; 3 μm by 200 Å; 2 cm×100 μm ID). […] Relative quantification within different conditions was obtained calculating the significance B values for each of the identified proteins using Perseus (Cox et al., 2009).

[5] = system: MRC-5 lung fibroblasts; assay: Fibroblast survival assay (FSA); assay type: cell-based; conditions: Homo sapiens, MRC5; read-out: IC50 of protection of fibroblasts
[6] = system: several other mycobacteria and non-mycobacterial pathogens; assay: REMA assay of non-Mtb strains; assay type: cell-based
[7] = system: Mtb-infected THP-1 macrophages; assay type: cell-based, human
[8] = system: Mtb transcriptome; assay: RNA-seq and qRT-PCR of compound-treated Mtb; assay type: cell-based, Mycobacterium tuberculosis; conditions: RNA-seq, 5 μM
Method: For the transcriptomic studies, bacteria were grown under the same conditions as for protein secretion assays. Drug exposure time was 8 hours with 5 μM of compound for RNA-seq experiments and confirmatory qRT-PCR. RNA was extracted with Trizol (Invitrogen) and treated with DNase I (Roche) prior to library preparation or generation of the cDNA template. cDNA was synthesized using the RevertAid First Strand cDNA Synthesis Kit (Fermentas) using random hexamer primer. cDNA corresponding to 10 ng of input RNA was used in each RT-PCR reaction supplemented with specific primer pairs (200 nM each) listed in Table S4 and SYBR-Green master mix (Applied Biosystems). Quantitative RT-PCR reactions were performed with the 7900HT Fast Real-Time PCR System (Applied Biosystems) with the following parameters: 50° C. for 2 min, 95° C. for 10 min, followed by 40 cycles of 95° C. for 15 s and 60° C. for 60 s. Melt curve analysis was used to confirm specific amplification for each primer pair. Unpaired Student's T-tests were used for statistical analyses.
For the RNA-seq library preparation 100 ng of total RNA were used in the TruSeq Stranded mRNA LT kit, according to the instructions provided by the manufacturer (Illumina). A small aliquot was analyzed on Qubit and Fragment Analyzer prior to sequencing on Illumina HiSeq using the TruSeq SR Cluster Generation Kit v3 and TruSeq SBS Kit v3. Data were processed with the Illumina Pipeline Software v1.82. RNA-seq data were deposited in the Gene Expression Omnibus (GEO) server at the National Center for Biotechnology Information (NCBI).
• All analyses in this study were carried out using the M. tuberculosis H37Rv annotation from the TubercuList database (http://tuberculist.epfl.ch/) (Lew et al., 2011). There are 4019 protein coding sequences (CDS) currently annotated in the genome, 73 genes encoding for stable RNAs, small RNAs and tRNAs. In order to quantify protein occupancy and transcription across the entire genome, 3080 intergenic regions (regions flanked by two non-overlapping CDS) were included, resulting in a total of 7172 features. • The single-ended sequence reads generated from RNA-seq experiments were aligned to the M. tuberculosis H37Rv genome (NCBI accession NC_000962.2) using Bowtie2 with default parameters (Langmead and Salzberg, 2012). Read counts for all annotated features were obtained with the htseq-count program (http://www.huber.embl.de/users/anders/HTSeq/doc/count.html). Regions where genes overlapped were excluded from counting. Reads spanning more than one feature were counted for each feature. Since the RNA library was strand-specific, the orientation of sequence reads had to correspond to the orientation of annotated features to be counted. Analysis of differential gene expression was carried out using the DESeq package (Anders and Huber, 2010).

CSC(=S)N/N=C(\C)c1ccc(OCc2ccc(F)cc2F)cc1 [BBH7, N′-{1-[4-(2,4-Difluoro-benzyloxy)-phenyl]ethylidene}-hydrazinecarbodithioic acid methyl ester]
protection of THP-1 cells from Mtb-induced cell death [1]: protected THP-1 cells from Mtb-induced cell death
Ag85 secretion [2]: fully blocked
EsxA secretion [3]: dose-dependent secretion inhibition
reduction of total culture filtrate protein [4]: 50%
abundance of ESX-5 substrates (EsxN/EsxM, PE25, PPE41) in culture filtrate ([4]; LC-MS/MS): significantly reduced in abundance
IC50 [5]: 2400 nM
MIC99 [6]: > 100 µM
rate of bacteria in acidic compartments (Lysotracker Red co-localization) [7]: significantly higher rate
upregulated genes (number) [8]: 121 genes
upregulation of the metallothionein mymT [8]: 20 fold
differentially regulated genes (number) ([8]; 8 hours): 144 genes
